Several values for one entry are separate records, joined by “and”; a condition that tells them apart may be missing. Equal entries are not always repeated.
Target: telomerase (Homo sapiens, UniProt O14746)
Assay: Direct telomerase repeat addition assay with radiolabeled dNTPs: dNTP titration, repeat processivity R1/2
Assay type: biochemical
Design: made in house; anti-FLAG immunopurification, eluted with 3xFLAG peptide
Conditions: for Processivity R 1/2: (TTAGGG)3 primer, remaining three natural dNTPs at cellular concentration
Experimental: This preparation, termed super telomerase, has kinetic properties similar to endogenous telomerase (Supplementary Fig. 1)[29]–[31]. […] Repeat processivity was measured using the convention of calculating the number of repeats synthesized before half of the DNA substrates dissociate from telomerase[33] (Supplementary Fig. 2). 8-oxo-dGTP served as a control since it is an established telomerase chain terminator[12].
Fig. 2 Oxidized and therapeutic dNTPs inhibit telomerase processivity. […] The loading control (*) was a ^32P-end labeled 18-mer oligonucleotide. Numbers on the left indicate the number of added repeats; letters on the right indicate template residue. Images are representative of three independent experiments.
The telomerase assay was as described. […] Reactions containing the modified dNTPs (Trilink Biotechnologies) substituted for their natural dNTP analog are indicated in the figure legends. The reactions were started by the addition of 3 μl (~35 fmol) of immunopurified telomerase eluent, incubated at 37 °C for 1 h, then terminated with 2 μl of […] EDTA and heat inactivated at 65 °C for 20 min. ^32P-end labeled 18-mer loading control (8 fmol) was added to the terminated reactions before purification with an Illustra Microspin G-25 column (GE Healthcare). An equal volume of loading buffer (94% formamide, 0.1× TBE, 0.1% bromophenol blue, 0.1% xylene cyanol) was added to the reaction eluent from the G-25 spin column. The samples were heat denatured for 10 min at 100 °C and loaded onto a 14% denaturing polyacrylamide gel (7 M urea, 1× TBE) and electrophoresed for 90 min at constant 38 W. Samples were imaged using a Typhoon phosphorimager (GE Healthcare).
The processivity was calculated as described[40],[67]. Repeat processivity from the direct telomerase extension assays was calculated as R1/2 (equivalent to the half-time for decay in an exponential time course), which represents the median length of DNA product formed, expressed in terms of number of telomere repeats. First, the total volume counts for each product band extend by one or more telomere repeats were obtained using Image Quant TL. The volume counts were then normalized by dividing by the number of radiolabeled guanosines incorporated into the extended products based on the number of repeats added, termed corrected volume (corr vol). The “percent left behind” (%LB) was calculated for each product band by summing the counts for that product band and for every product band below (shorter products), divided by the total counts for the lane, and then multiplied by 100. The natural log of (100−%LB) was calculated and then plotted vs. repeat number for each product length. A linear regression line was fit to the data to determine the slope of the line. The R1/2 value was calculated by dividing −ln(2) by the slope of each fitted line (R1/2 = −ln(2)/slope).
Number of Repeats Number of Repeats Number of Repeats Number of Repeats
Supplementary Fig 2.Telomerase dNTP titrations and processivity calculations. Telomerase reactions were conducted with (TTAGGG) 3 primer 1 and cellular-concentration dNTPs except that the […]
The loading control (LC) was a 32P-end labeled 18-mer. Numbers on the left indicate the number of added repeats. (d) Processivity was calculated as R1/2 (see Methods). (e) The natural log of (100-%LB) was plotted vs repeat number. A straight line was fit to the data and the R1/2 was calculated by dividing –ln(2) by the slope of each line. Plots shown from one experiment. Images ( a-c) and plots ( e) are representative of, and data are mean + s. d. (d) from, three independent experiments. Source data are provided as a Source Data file.
(1 picture or pasted object on this page, not shown here)

[1] = indicated dNTP at 0.5 μM, n1-n3
[2] = 5μM titrated dNTP, telomere repeat 1
[3] = 25μM titrated dNTP, telomere repeat 1

telomerase, sequence (O14746 whole entry): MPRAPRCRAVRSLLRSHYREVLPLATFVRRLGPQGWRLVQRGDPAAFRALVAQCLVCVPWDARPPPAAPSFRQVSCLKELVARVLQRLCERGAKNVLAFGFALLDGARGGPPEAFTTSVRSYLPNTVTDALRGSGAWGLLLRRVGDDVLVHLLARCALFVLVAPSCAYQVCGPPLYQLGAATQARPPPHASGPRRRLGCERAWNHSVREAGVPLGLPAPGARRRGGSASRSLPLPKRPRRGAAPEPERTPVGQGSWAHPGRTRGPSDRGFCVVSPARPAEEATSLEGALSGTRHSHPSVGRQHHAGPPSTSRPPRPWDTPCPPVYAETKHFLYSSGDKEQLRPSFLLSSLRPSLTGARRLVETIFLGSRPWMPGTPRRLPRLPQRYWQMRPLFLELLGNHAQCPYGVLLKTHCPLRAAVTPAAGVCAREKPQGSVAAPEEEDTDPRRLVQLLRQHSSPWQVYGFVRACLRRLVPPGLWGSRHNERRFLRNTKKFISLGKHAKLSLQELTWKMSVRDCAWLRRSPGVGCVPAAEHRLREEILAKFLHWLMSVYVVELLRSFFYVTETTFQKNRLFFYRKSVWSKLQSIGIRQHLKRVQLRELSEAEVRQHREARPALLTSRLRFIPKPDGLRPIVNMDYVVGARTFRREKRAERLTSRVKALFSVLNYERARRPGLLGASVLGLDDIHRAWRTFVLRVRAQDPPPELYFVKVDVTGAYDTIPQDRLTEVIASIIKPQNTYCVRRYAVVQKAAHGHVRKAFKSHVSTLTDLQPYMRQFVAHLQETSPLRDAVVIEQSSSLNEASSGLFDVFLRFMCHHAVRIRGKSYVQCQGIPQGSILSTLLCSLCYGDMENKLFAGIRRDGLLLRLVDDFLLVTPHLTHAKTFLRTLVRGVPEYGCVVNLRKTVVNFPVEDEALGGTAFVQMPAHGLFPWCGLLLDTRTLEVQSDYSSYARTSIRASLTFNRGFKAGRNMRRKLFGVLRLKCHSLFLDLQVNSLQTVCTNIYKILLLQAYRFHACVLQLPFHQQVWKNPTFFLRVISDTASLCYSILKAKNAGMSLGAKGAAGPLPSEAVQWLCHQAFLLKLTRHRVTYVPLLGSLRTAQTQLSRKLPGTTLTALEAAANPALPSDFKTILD

Nc1nc(O)nc2c1ncn2C1CC(O)C(COP(=O)(O)OP(=O)(O)OP(=O)(O)O)O1 (stereo not shown) [2-OH-dATP]
YIntercept (best-fit line of ln(100-%LB) vs repeat number) (2-OH-dATP 0.5μM, single experiments): 2.12 and 4.01 and 2.03 | YIntercept (best-fit line of ln(100-%LB) vs repeat number) (2-OH-dATP 1μM, single experiments): 2.17 and 3.36 and 2.82 | ln(100-%LB) (2-OH-dATP 5μM, 1 telomere repeat, single experiments): 1.89 and 1.96 and 2.94 | YIntercept (best-fit line of ln(100-%LB) vs repeat number) (2-OH-dATP 5μM, single experiments): 3.87 and 3.78 and 4.14 | ln(100-%LB) (2-OH-dATP 25μM, 1 telomere repeat, single experiments): 2.24 and 2.45 | ln(100-%LB) (2-OH-dATP 25μM, 2 telomere repeats, single experiments): 0.15 and 0.23 | YIntercept (best-fit line of ln(100-%LB) vs repeat number) (2-OH-dATP 25μM, single experiments): 3.63 and 4.14 | Processivity R 1/2 (indicated dNTP at 0.5 μM, Mean): 0.46 | Processivity R 1/2 [1]: 0.46 and 0.39 and 0.53 | Processivity R 1/2 (indicated dNTP at 1 μM, Mean): 0.43 | Processivity R 1/2 (indicated dNTP at 1 μM, n1-n3): 0.30 and 0.39 and 0.59 | Processivity R 1/2 (indicated dNTP at 5 μM, Mean): 0.57 | Processivity R 1/2 (indicated dNTP at 5 μM, n1-n3): 0.42 and 0.69 and 0.61 | Processivity R 1/2 (indicated dNTP at 24 μM, Mean): 0.66 | Processivity R 1/2 (indicated dNTP at 24 μM, n1-n3): 0.46 and 0.70 and 0.83

Nc1nc2c(ncn2C2CC(O)C(COP(=O)(O)OP(=O)(O)OP(=O)(O)O)O2)c(=S)[nH]1 (stereo not shown) [6-thio-dGTP]
Processivity R 1/2 (indicated dNTP at 0.5 μM, Mean): 0 | Processivity R 1/2 [1]: 0 | Processivity R 1/2 (indicated dNTP at 1 μM, Mean): 0 | Processivity R 1/2 (indicated dNTP at 1 μM, n1-n3): 0 | Processivity R 1/2 (indicated dNTP at 5 μM, Mean): 0 | Processivity R 1/2 (indicated dNTP at 5 μM, n1-n3): 0 | Processivity R 1/2 (indicated dNTP at 24 μM, Mean): 0 | Processivity R 1/2 (indicated dNTP at 24 μM, n1-n3): 0

Nc1ncnc2c1[nH]c(=O)n2C1CC(O)C(COP(=O)(O)OP(=O)(O)OP(=O)(O)O)O1 (stereo not shown) [8-oxo-dATP]
Processivity R 1/2 (indicated dNTP at 0.5 μM, Mean): 0 | Processivity R 1/2 [1]: 0 | Processivity R 1/2 (indicated dNTP at 1 μM, Mean): 0 | Processivity R 1/2 (indicated dNTP at 1 μM, n1-n3): 0 | Processivity R 1/2 (indicated dNTP at 5 μM, Mean): 0 | Processivity R 1/2 (indicated dNTP at 5 μM, n1-n3): 0 | Processivity R 1/2 (indicated dNTP at 24 μM, Mean): 0 | Processivity R 1/2 (indicated dNTP at 24 μM, n1-n3): 0

Nc1nc2c([nH]c(=O)n2C2CC(O)C(COP(=O)(O)OP(=O)(O)OP(=O)(O)O)O2)c(=O)[nH]1 (stereo not shown) [8-oxo-dGTP]
Processivity R 1/2 (indicated dNTP at 0.5 μM, Mean): 0 | Processivity R 1/2 [1]: 0 | Processivity R 1/2 (indicated dNTP at 1 μM, Mean): 0 | Processivity R 1/2 (indicated dNTP at 1 μM, n1-n3): 0 | Processivity R 1/2 (indicated dNTP at 5 μM, Mean): 0 | Processivity R 1/2 (indicated dNTP at 5 μM, n1-n3): 0 | Processivity R 1/2 (indicated dNTP at 24 μM, Mean): 0 | Processivity R 1/2 (indicated dNTP at 24 μM, n1-n3): 0

Cc1cn([C@H]2C[C@H](N=[N+]=[N-])[C@@H](CO[P@](=O)(O)O[P@](=O)(O)OP(=O)(O)O)O2)c(=O)[nH]c1=O [AZT-TP]
Processivity R 1/2 (indicated dNTP at 0.5 μM, Mean): 0 | Processivity R 1/2 [1]: 0 | Processivity R 1/2 (indicated dNTP at 1 μM, Mean): 0 | Processivity R 1/2 (indicated dNTP at 1 μM, n1-n3): 0 | Processivity R 1/2 (indicated dNTP at 5 μM, Mean): 0 | Processivity R 1/2 (indicated dNTP at 5 μM, n1-n3): 0 | Processivity R 1/2 (indicated dNTP at 24 μM, Mean): 0 | Processivity R 1/2 (indicated dNTP at 24 μM, n1-n3): 0

Nc1ncnc2c1ncn2C1CC(O)C(COP(=O)(O)OP(=O)(O)OP(=O)(O)O)O1 (stereo not shown) [dATP]
YIntercept (line, best-fit value) of ln(100-%LB) vs # telomere repeats (0.5μM titrated dNTP): 4.31 and 3.25 and 4.01 | YIntercept (line, best-fit value) of ln(100-%LB) vs # telomere repeats (1μM titrated dNTP): 4.44 and 2.47 and 4.49 | ln(100-%LB) (1μM titrated dNTP, telomere repeat 3): 2.47 and 1.35 and 2.09 | YIntercept (line, best-fit value) of ln(100-%LB) vs # telomere repeats (5μM titrated dNTP): 4.00 and 3.98 and 2.64 | ln(100-%LB) [2]: 3.97 and 2.20 | ln(100-%LB) (5μM titrated dNTP, telomere repeat 2): 3.54 and 1.95 | ln(100-%LB) (5μM titrated dNTP, telomere repeat 3): 3.04 and 3.01 and 1.68 | YIntercept (line, best-fit value) of ln(100-%LB) vs # telomere repeats (25μM titrated dNTP): 3.73 and 2.10 | ln(100-%LB) [3]: 3.90 and 2.05 | Processivity R 1/2 (indicated dNTP at 0.5 μM, Mean): 1.28 | Processivity R 1/2 [1]: 0.99 and 1.34 and 1.51 | Processivity R 1/2 (indicated dNTP at 1 μM, Mean): 1.47 | Processivity R 1/2 (indicated dNTP at 1 μM, n1-n3): 1.33 and 1.42 and 1.67 | Processivity R 1/2 (indicated dNTP at 5 μM, Mean): 2.10 | Processivity R 1/2 (indicated dNTP at 5 μM, n1-n3): 1.66 and 2.20 and 2.43 | Processivity R 1/2 (indicated dNTP at 24 μM, Mean): 2.21 | Processivity R 1/2 (indicated dNTP at 24 μM, n1-n3): 1.90 and 2.36 and 2.37

Nc1nc2c(ncn2C2CC(O)C(COP(=O)(O)OP(=O)(O)OP(=O)(O)O)O2)c(=O)[nH]1 (stereo not shown) [dGTP]
ln(100-%LB) (0.5μM titrated dNTP, telomere repeat 8): -4.24 | ln(100-%LB) (0.5μM titrated dNTP, telomere repeat 9): -4.48 | ln(100-%LB) (0.5μM titrated dNTP, telomere repeat 10): -4.75 | ln(100-%LB) (0.5μM titrated dNTP, telomere repeat 11): -4.99 | Processivity R 1/2 (indicated dNTP at 0.5 μM, Mean): 1.69 | Processivity R 1/2 [1]: 1.96 and 1.27 and 1.84 | Processivity R 1/2 (indicated dNTP at 1 μM, Mean): 1.78 | Processivity R 1/2 (indicated dNTP at 1 μM, n1-n3): 1.97 and 1.53 and 1.85 | Processivity R 1/2 (indicated dNTP at 5 μM, Mean): 2.39 | Processivity R 1/2 (indicated dNTP at 24 μM, Mean): 5.11

Cc1cn(C2CC(O)C(COP(=O)(O)OP(=O)(O)OP(=O)(O)O)O2)c(=O)[nH]c1=O (stereo not shown) [dTTP]
YIntercept (line, best-fit value) of ln(100-%LB) vs # telomere repeats (0.5μM titrated dNTP): 4.06 and 3.53 and 2.25 | YIntercept (line, best-fit value) of ln(100-%LB) vs # telomere repeats (1μM titrated dNTP): 3.61 and 3.41 and 1.82 | ln(100-%LB) (1μM titrated dNTP, telomere repeat 1): 3.41 and 3.35 and 1.72 | ln(100-%LB) [2]: 1.67 and 3.31 and 3.28 | YIntercept (line, best-fit value) of ln(100-%LB) vs # telomere repeats (25μM titrated dNTP): 3.33 and 3.39 and 1.96 | ln(100-%LB) [3]: 3.18 and 3.21 and 2.13 | ln(100-%LB) (25μM titrated dNTP, telomere repeat 2): 2.32 and 2.36 and 1.43 | ln(100-%LB) (25μM titrated dNTP, telomere repeat 3): 1.64 and 1.63 and 0.90 | Processivity R 1/2 (indicated dNTP at 0.5 μM, Mean): 1.28 | Processivity R 1/2 [1]: 1.27 and 1.42 and 1.15 | Processivity R 1/2 (indicated dNTP at 1 μM, Mean): 1.90 | Processivity R 1/2 (indicated dNTP at 1 μM, n1-n3): 1.45 and 1.97 and 2.27 | Processivity R 1/2 (indicated dNTP at 5 μM, Mean): 2.06 | Processivity R 1/2 (indicated dNTP at 5 μM, n1-n3): 1.59 and 1.96 and 2.62 | Processivity R 1/2 (indicated dNTP at 24 μM, Mean): 1.95

O=c1[nH]cnc2c1ncn2C1CCC(COP(=O)(O)OP(=O)(O)OP(=O)(O)O)O1 (stereo not shown) [ddITP]
Processivity R 1/2 (indicated dNTP at 0.5 μM, Mean): 0 | Processivity R 1/2 [1]: 0 | Processivity R 1/2 (indicated dNTP at 1 μM, Mean): 0 | Processivity R 1/2 (indicated dNTP at 1 μM, n1-n3): 0 | Processivity R 1/2 (indicated dNTP at 5 μM, Mean): 0 | Processivity R 1/2 (indicated dNTP at 5 μM, n1-n3): 0 | Processivity R 1/2 (indicated dNTP at 24 μM, Mean): 0 | Processivity R 1/2 (indicated dNTP at 24 μM, n1-n3): 0
